Reference: ChEMBL document CHEMBL1145174, “Potent 4-aryl- or 4-arylalkyl-substituted 3-isoxazolol GABA(A) antagonists: synthesis, pharmacology, and molecular modeling” (J Med Chem, 2005)

Assays:
[1] = tested on: GABA-A receptor (Mus musculus); assay: cells
[2] = target: GABA-A receptor; anion channel; assay: Displacement of [3H]muscimol from rat brain gamma-aminobutyric-acid GABA-A receptor

## Oc1noc(C2CCNCC2)c1Cc1ccc2ccccc2c1
[1]
  IC50: 370 nM

## Oc1noc(C2CCNCC2)c1Cc1ccc2ccccc2c1Cl
[2]
  Ki: 16 nM
[1]
  IC50: 113 nM

## Oc1noc(C2CCNCC2)c1Cc1ccc2ccc(Br)cc2c1
[2]
  Ki: 109 nM
[1]
  IC50: 384 nM

## Oc1noc(C2CCNCC2)c1Cc1ccc2ccccc2c1Br
[2]
  Ki: 10 nM
[1]
  IC50: 42 nM

## CSc1c(Cc2c(O)noc2C2CCNCC2)ccc2ccccc12
[2]
  Ki: 28 nM
[1]
  IC50: 61 nM

## Oc1noc(C2CCNCC2)c1Cc1ccc2ccccc2c1-c1ccccc1
[2]
  Ki: 21 nM
[1]
  IC50: 198 nM

## Oc1noc(C2CCNCC2)c1Cc1ccc2ccccc2c1Sc1ccccc1
[2]
  Ki: 250 nM
[1]
  IC50: 126 nM

## Oc1noc(C2CCNCC2)c1-c1ccccc1
[2]
  Ki: 220 nM
[1]
  IC50: 159 nM

## Oc1noc(C2CCNCC2)c1Cc1ccc2c(Br)cccc2c1
[2]
  Ki: 80 nM
[1]
  IC50: 215 nM

## Oc1noc(C2CCNCC2)c1Cc1ccc2cccc(Br)c2c1
[2]
  Ki: 45 nM
[1]
  IC50: 226 nM

## O=c1[nH]oc(C2CCNCC2)c1-c1cccc2ccccc12
[2]
  Ki: 820 nM
[1]
  IC50: 334 nM

## N#Cc1c(Cc2c(O)noc2C2CCNCC2)ccc2ccccc12
[2]
  Ki: 28 nM
[1]
  IC50: 140 nM

## Oc1noc(C2CCNCC2)c1Cc1ccc2ccccc2c1F
[2]
  Ki: 19 nM
[1]
  IC50: 242 nM

## Oc1noc(C2CCNCC2)c1-c1ccc2ccccc2c1
[2]
  Ki: 36 nM
[1]
  IC50: 141 nM
